This is an account of results in PMC5374710, “Discovery of the first dual GSK3β inhibitor/Nrf2 inducer. A new multitarget therapeutic strategy for Alzheimer’s disease” (Scientific Reports, 2017).

The subject of one experiment is NOX. The experiment can be described thus: NOX activity assay in LPS-stimulated glial cultures (lucigenin). Type of experiment: cell-based, rat. To be noted: 10 to 60 μM, 4 h stimulation with LPS 1 μg/mL, p < 0.01. On the procedure: (§1) TNFα is considered one of the most important pro-inflammatory cytokines. […] The production of TNFα induced by LPS was reduced by 33% at 10 μM and by 50% at 30 μM. […] To further confirm the anti-inflammatory potential of compound 5c we measured the expression of thre NOX2 enzyme, since this isoform has been widely described as being specific tomicroglial cells. As depicted in Fig. 6F, LPS (1 μg/mL) stimulation of primary glial cultures during 24 h increased the expression of NOX2 by 65.3% (p < 0.01) compared to basal conditions.
(§2) Figure 6 Nitrites (A), TNFα (B), iNOS (C) and NOX activity (E) blockade (D) and NOX2 production (F) by 5c in primary glial cultures stimulated with LPS (1 μg/mL), HO-1 expression induced by this compound after 24 h. […] NOX activity was measured after 4 h co-treatment with LPS and compound 5c. […]
Cells were pre-incubated with increasing concentrations of the compound. […] Then, treatments were removed and NADPH oxidase activity was assessed by measuring O2^− production in the presence of the substrate, NADPH (100 μM) as lucigenin-enhanced chemiluminiscence (5 μM lucigenin). No enzymatic activity was detected in the absence of NADPH. Luminescence was recorded 29 times every 1.8 seconds for each well in a luminometer, and NADPH oxidase activity was expressed as relative light units (RLU)/min normalized to basal value. […]

Another experiment concerns iNOS. The experiment is described as follows: iNOS expression in LPS-stimulated glial cultures (western blot). Particulars: 30 μM, LPS 1 μg/mL. Type of experiment: cell-based, rat. As to the method: as §1, §2
After treatment, mixed glial cells were washed with cold PBS and lysed in 100 μl ice-cold lysis buffer (1% Nonident P-40, 10% glycerol, 137 mM NaCl, 20 mM Tris HCl pH 7.5, 1 μg/ml leupeptin, 1 mM phenylmethylsulfonyl fluoride, 20 mM NaF, 1 mM sodium pyrophosphate, and 1 mM Na3VO4). […] Peroxidase-conjugated secondary antibodies (1:10000) were used to detect proteins by enhanced chemiluminescence detected by Advance Western-blotting Detection Kit (GE Healthcare, Barcelona, Spain). […]

`COc1cccc(C2C(C#N)=C(N)Oc3n[nH]c(C)c32)c1` (centres unmarked) [Compound 5c, 6-Amino-4-(3-methoxyphenyl)-3-methyl-2,4-dihydropyrano[2,3-c]pyrazole-5-carbonitrile]: the “Reduction of NOX activity” value with NOX was “significantly reduce”. Moreover, the “Reduction of iNOS expression” value in the experiment with iNOS was “almost completely”.
